Assay [1] addresses T1, acyl-CoA synthetase 4 (Acsl4) (Rattus norvegicus, UniProt O35547). Format: biochemical.
Assay [2] has as its target T1, acyl-CoA synthetase 4 (Acsl4). The format is biochemical. The source holds these as a separate data set.

T1 sequence (O35547 whole entry): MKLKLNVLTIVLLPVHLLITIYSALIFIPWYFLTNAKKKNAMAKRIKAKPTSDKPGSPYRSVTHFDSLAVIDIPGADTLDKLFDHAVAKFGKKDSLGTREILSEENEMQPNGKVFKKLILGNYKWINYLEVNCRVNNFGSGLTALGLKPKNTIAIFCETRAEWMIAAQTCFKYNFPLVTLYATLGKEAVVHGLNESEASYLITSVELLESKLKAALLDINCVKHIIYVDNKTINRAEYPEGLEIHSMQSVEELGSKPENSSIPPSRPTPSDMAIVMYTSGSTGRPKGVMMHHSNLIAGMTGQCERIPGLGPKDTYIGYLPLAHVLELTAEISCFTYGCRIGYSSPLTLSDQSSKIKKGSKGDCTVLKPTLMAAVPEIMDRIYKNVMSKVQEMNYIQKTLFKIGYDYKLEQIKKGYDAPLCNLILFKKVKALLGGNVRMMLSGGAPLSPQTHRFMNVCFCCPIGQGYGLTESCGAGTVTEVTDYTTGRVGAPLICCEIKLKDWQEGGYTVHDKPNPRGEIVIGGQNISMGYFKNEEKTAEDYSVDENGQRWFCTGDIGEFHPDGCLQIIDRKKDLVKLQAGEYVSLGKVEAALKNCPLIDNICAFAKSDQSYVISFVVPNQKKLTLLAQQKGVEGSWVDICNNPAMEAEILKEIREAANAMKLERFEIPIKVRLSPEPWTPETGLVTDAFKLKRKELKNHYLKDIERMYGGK

In turn, `CCCC(C(=O)O)C(C)C` (racemic) [PIA, 2-isopropylpentanoic acid] came in with a Ki in assay [1] of 11.4 ± 1.28 mM.
`CCCCC/C=C\C/C=C\C/C=C\C/C=C\CCCC(=O)O` [AA, arachidonic acid]: in assay [2], the Km was 4.12 ± 0.56 µM.

The values above are taken from paper PMC3593989 (Biochimica et biophysica acta, 2013).
